Experimental data published in publication PMC11765394, “Structure-Based Discovery of MolPort-137: A Novel Autotaxin Inhibitor That Improves Paclitaxel Efficacy” (International Journal of Molecular Sciences, 2025).

target: T1, autotaxin (ATX) (Homo sapiens, UniProt Q13822); test: FS-3 fluorogenic substrate hydrolysis assay with […] purified recombinant human ATX; type: biochemical
T1 construct: gene ENPP2

Molecule | IC50
CCCCCCCCCCCCCCCc1ccc(CP(=O)(O)O)cc1 [BMP-22, reference compound] | 200 nM
MolPort-137 | 1600 ± 200 nM

target: T1, autotaxin (ATX); test: biochemical; design: FS-3 fluorogenic substrate hydrolysis by purified recombinant human ATX, fluorescence read-out
Method: The purification of recombinant human ATX was carried out as reported earlier. The potential inhibitory effect of the hits identified through molecular modeling was assessed using the FS-3 assay, which measures fluorescence when the non-natural lipid-like FRET-established substance FS-3 (Echelon Biosciences, Salt Lake City, UT, USA) is hydrolyzed by ATX. A 60 μL volume of reaction mixture containing ATX assay buffer (pH 8.0, containing 10 μM BSA, 50 mM TRIS, […], 5 mM KCl, 1 mM CaCl2, and 1 mM MgCl2) was added to each well of a black-wall 96-well plate. Recombinant ATX was then added to achieve a final concentration of 4 nM. The compounds were dissolved in DMSO and transferred to a 96-well plate in technical triplicate. Single-dose testing was performed with a final well concentration of 10 μM, while dose–response assays involved eight different concentrations of the test compound. FS-3 was then added to achieve a concluding well strength of 1 μM, and fluorescence was quantified on a CLARIOstar Plus plate reader (BMG Labtech, Ortenberg, Baden-Württemberg, Germany) for two hours, with scans every two minutes at excitation/emission wavelengths of 485/528 nm. Percent activity was calculated relative to DMSO-treated control wells. […] Inhibition tests were conducted to target ATX-facilitated hydrolysis of FS3 (LPC homolog) using 15 compounds at 10 μM. Compounds inhibiting more than 50% of FS-3 hydrolysis were classified as hits. […] BMP-22, a known ATX inhibitor, served as a control with an IC50 of 0.2 ± 0.0 μM, consistent with reported values.

Molecule | inhibition at 10 µM
COc1ccc(NC(=O)CSc2nc(=O)c3c(C)cc(C)nc3n2-c2cccc(C)c2C)cc1 [MolPort-072] | 42%
Cc1ccc(-c2noc(-c3nnn(Cc4nc(-c5ccccc5)oc4C)c3C)n2)cc1C [MolPort-122] | 15.5%
Cc1cc(F)ccc1NC(=O)c1cnn2c(=O)c3c(n(C)c12)CCN(Cc1ccccc1)C3 [MolPort-137] | 75.9%
Cc1cccc(-n2c(SCC(=O)Nc3ccc(C)c(C)c3)nc3[nH]nc(C)c3c2=N)c1 [MolPort-144] | -13.5%
Cc1cccc(NC(=O)Cn2nc3c(Oc4ccccc4C)nc4ccccc4n3c2=O)c1 [MolPort-161] | 5.16%
COc1ccccc1-c1nc(Cn2nnc(-c3nc(-c4ccc(C)cc4)no3)c2C)c(C)o1 [MolPort-185] | 33.7%
Cc1ccc(NC(=O)Cn2nc3c(Oc4cccc(C)c4C)nc4ccccc4n3c2=O)cc1C [MolPort-240] | 2.06%
Cc1cc(NC(=O)Cn2nc3c(Oc4ccccc4C)nc4ccccc4n3c2=O)ccc1Br [MolPort-311] | 5.23%
Cc1cc(-n2c(SCC(=O)Nc3ccc(F)c(F)c3)nc3n[nH]c(C)c3c2=N)ccc1Cl [MolPort-323] | 5%
Cc1ccccc1NC(=O)c1nnn(Cc2nc(-c3cccc(Cl)c3)oc2C)c1C [MolPort-495] | 27.2%
Cc1cc(C)cc(NC(=O)Cn2c(=O)nc(N3CCCC(C)C3)c3ccccc32)c1 (centres unmarked) [MolPort-616] | 26.4%
CCc1cccc(NC(=O)Cn2nc3c(Oc4ccccc4C)nc4ccccc4n3c2=O)c1 [MolPort-674] | 7.1%
COc1cc(C=C2N=C(c3ccc(F)cc3)OC2=O)cc(I)c1OCc1cccc(C)c1 [MolPort-839] | 10.8%
Cc1cc(C)cc(-n2c(CN3CCN(C(=O)Nc4ccccc4F)CC3)nc3cccnc32)c1 [MolPort-904] | 29.7%
Cc1cccc(CNC(=O)c2c(O)c3cccnc3n(-c3cccc(F)c3)c2=O)c1 [MolPort-914] | 7.61%
